From article PMC3242641 (European journal of medicinal chemistry, 2011)
Values belong to the compound of their own block, whether it stands above or below them.

Key:
HIV-1 = format: cell-based
human PBM cells = conditions: 4 h at 50 μM, PHA activated human PBM cells, 37 °C
WT HIV-1 RT [1] = biological target: T1, WT HIV-1 RT (Human immunodeficiency virus type 1 group M subtype B, UniProt P04585); conditions: read-out: K, dNTP; cited from earlier work
WT HIV-1 RT [2] = biological target: T1, WT HIV-1 RT; format: biochemical
PBM cells [3] = system: PBM cells
wild-type HBV = assay: Anti-HBV activity, HepG2 AD38 system; format: cell-based; conditions: read-out: Anti-HBV activity EC50
PBM cells [4] = assay: Cytotoxicity in PBM cells; conditions: cell type not named in the sentence (PBM, CEM and Vero were tested)

Compound: CCOC(=O)[C@H](C)NP(=O)(OC[C@@H]1O[C@H](n2cc(C)c(=O)[nH]c2=O)C[C@H]1N=[N+]=[N-])Oc1ccccc1 (stereo partly drawn) [Compound 28, 1-(3′-Azido-2′, 3′-dideoxy-β-L-thymidine)-O-(phenyl-[ethoxyl-L-alaniny])-phosphate]
Anti-HIV-1 activity, in words (HIV-1): inactive

Amount of intracellular nucleoside triphosphate (TP) detected (human PBM cells): no detectable TPs
Compound: [N-]=[N+]=N[C@@H]1C[C@@H](n2cnc3c(Cl)ncnc32)O[C@H]1CO [Compound 7, 9-(3-Azido-2,3-dideoxy-β-L-ribofuranosyl)-6-chloro-9H-purine]

Compound: CCOC(=O)[C@H](C)NP(=O)(OC[C@@H]1O[C@H](n2cnc3c(Cl)nc(N)nc32)C[C@H]1N=[N+]=[N-])Oc1ccccc1 (stereo partly drawn) [Compound 18, 9-(3-Azido-2,3-dideoxy-β-L-ribofuranosyl)-2-amino-6-chloropurine-5-O-[phenyl-(ethoxy-L-alaninyl)]-phosphate]
Amount of intracellular intact prodrug detected (human PBM cells): 12 fmol/10^6 cells

Compound: Nc1ccn([C@H]2C[C@H](O)[C@@H](COP(=O)(O)OP(=O)(O)OP(=O)(O)O)O2)c(=O)n1 [dCTP]
Kd (WT HIV-1 RT [1]): 1100 ± 400 nM

Compound: Nc1ccn([C@@H]2CS[C@H](COP(=O)(O)OP(=O)(O)OP(=O)(O)O)O2)c(=O)n1 [Compound 3TC-TP]
Incorporation, fold better than the L-3′-azido-ddNTPs (WT HIV-1 RT [2]): 12-500 fold

Amount of intracellular nucleoside triphosphate (TP) detected (human PBM cells): no detectable TPs
Compound: [N-]=[N+]=N[C@@H]1C[C@@H](n2cnc3c(Cl)nc(N)nc32)O[C@H]1CO [Compound 17, 9-(3-Azido-2,3-dideoxy-β-L-ribofuranosyl)-2-amino-6-chloropurine]

Compound: CCOC(=O)[C@H](C)NP(=O)(OC[C@@H]1O[C@H](n2cnc3c(O)nc(N)nc32)C[C@H]1N=[N+]=[N-])Oc1ccccc1 (stereo partly drawn) [Compound 16, 3′-Azido-2′, 3′-dideoxy-β-L-guanosine-5′-O-[phenyl-(ethoxy-L-alaninyl)]-phosphate]
Anti-HIV-1 activity, in words (HIV-1): inactive

Compound: 9-(3-Azido-2,3-dideoxy-β-L-ribofuranosyl)-2-fluoro-6-aminopurine [Compound 26]
IC50 (PBM cells [3]): > 100 µM
IC50 (Vero cells): > 100 µM
EC50 (wild-type HBV): > 100 µM
IC50 (CEM cells): > 100 µM
EC90 (HIV-1; read-out: Anti-HIV activity EC90): > 100 µM

Amount of intracellular nucleoside triphosphate (TP) detected (human PBM cells): below the level of detection
Compound: COc1ncnc2c1ncn2[C@@H]1C[C@@H](N=[N+]=[N-])[C@H](CO)O1 [Compound 9, 9-(3-Azido-2,3-dideoxy-β-L-ribofuranosyl)-6-methoxyl-9H-purine]

Compound: CCOC(=O)[C@H](C)NP(=O)(OC[C@@H]1O[C@H](n2cnc3c(N)ncnc32)C[C@H]1N=[N+]=[N-])Oc1ccccc1 (stereo partly drawn) [Compound 11, 3′-Azido-2′, 3′-dideoxy-β-L-adenosine-5′-O-[phenyl-(ethoxy-L-alaninyl)]-phosphate]
Increase in anti-HIV activity versus 10 (HIV-1): 45 fold

Amount of intracellular nucleoside triphosphate (TP) detected (human PBM cells): below the level of detection
Compound: CNc1ncnc2c1ncn2[C@@H]1C[C@@H](N=[N+]=[N-])[C@H](CO)O1 [Compound 12, 9-(3-Azido-2,3-dideoxy-β-L-ribofuranosyl)-6-methylamino-9H-purine]

Compound: Cc1cn([C@H]2C[C@H](N=[N+]=[N-])[C@@H](CO)O2)c(=O)[nH]c1=O [Compound 27, 3′-Azido-2′-3′-dideoxy-β-L-thymidine]
Anti-HIV-1 activity, in words (HIV-1): inactive

Compound: CCOC(=O)[C@H](C)NP(=O)(OC[C@@H]1O[C@H](n2cnc3c(N)nc(N)nc32)C[C@H]1N=[N+]=[N-])Oc1ccccc1 (stereo partly drawn) [Compound 22, 9-(3-Azido-2,3-dideoxy-β-L-ribofuranosyl) -2,6-diaminopurine-5-O-(phenyl-[ethoxyl-L-alaninyl])-phosphate]
Observed toxicity (no toxicity up to) (PBM cells [4]): > 100 µM
